# Measurements reported in article PMC9785542, “Discovery of 1-Benzhydryl-Piperazine-Based HDAC Inhibitors with Anti-Breast Cancer Activity: Synthesis, Molecular Modeling, In Vitro and In Vivo Biological Evaluation” (Pharmaceutics, 2022).
# Like-named read-outs stand apart in the source and are kept apart here.
# Columns and labels:
# [1] = tested on: MDA-MB-231 cells; test: Matrigel invasion assay; assay type: cell-based, human; details: 24 h; 5 μM 8b, 10 μM 9b
# Procedure: To determine MDA-MB-231 cell migration and invasion cell capacities, Corning® Costar® Transwell® cell culture inserts with 8.0 μm pore polycarbonate filters (Sigma Aldrich, CLS3464) and Corning™ BioCoat™ Matrigel™ Invasion Chamber with Corning Matrigel Matrix™ cell culture inserts (Thermo fisher scientific, Waltham, MA, USA) respectively were used. Briefly, 6 × 10^4 cells in 200 μL were seeded in the upper chamber and the bottom chamber was filled with 800 μL of medium. After 24 h under indicated treatments, the remaining cells in the upper chamber were gently removed with a cotton swab, moistened with medium, and the inserts were carefully washed twice with 37 °C warmed PBS. Then, attached cells at the bottom side of the membrane were fixed by immersing in ice cold methanol for 2 min and stained with 0.1% crystal violet for 15 min at room temperature. Stained cells were photographed and quantified using NIH ImageJ software.
# [2] = tested on: MDA-MB-231 tumor spheres; test: 3D tumor sphere model, MTT and imaging; assay type: cell-based, human; details: for tumor sphere viability: 50 µM, 72 h, formed spheres
# Procedure: MDA-MB-231 cells were seeded at a cell density of 1000 c/w in 100 μL of DMEM containing 10% FCS in a low-attachment NunclonSphera 96-well ultra-low attachment plate (Thermo Scientific Nunc™, Rochester, NY, USA), to form multicellular tumor spheres, for 4 days. The formation and growth of tumor spheres were examined and imaged with an Olympus CKX53 microscope, using a 10× objective. MDA-MB-231 tumor spheres were treated by carefully adding 50 μL of the medium with fresh nutrient medium for control spheres or with compound-supplemented medium (50 μM) for treated spheres for another 72 h. The cytotoxicity of compounds toward the MDA-MB-231 tumor spheres was investigated by MTT assay.
# The formation and growth of tumor spheroids were examined and imaged with an Olympus CKX53 microscope, using 4x objective. The cytotoxicity of compounds toward the MDA-MB-231 tumor spheroids was investigated by MTT assay.
# [3] = target: T1, Human recombinant C-ter-His-FLAG-HDAC1 (Homo sapiens, UniProt Q13547); test: HDAC-Glo I/II bioluminogenic enzyme assay, HDAC1; assay type: biochemical; details: mean ± SD of three independent experiments; read-out: HDAC Inhibition, IC50 ± SD, HDAC1
# T1 construct: His (C); FLAG (C); purchased BPS Bioscience 50051
# T1 sequence (Q13547 whole entry): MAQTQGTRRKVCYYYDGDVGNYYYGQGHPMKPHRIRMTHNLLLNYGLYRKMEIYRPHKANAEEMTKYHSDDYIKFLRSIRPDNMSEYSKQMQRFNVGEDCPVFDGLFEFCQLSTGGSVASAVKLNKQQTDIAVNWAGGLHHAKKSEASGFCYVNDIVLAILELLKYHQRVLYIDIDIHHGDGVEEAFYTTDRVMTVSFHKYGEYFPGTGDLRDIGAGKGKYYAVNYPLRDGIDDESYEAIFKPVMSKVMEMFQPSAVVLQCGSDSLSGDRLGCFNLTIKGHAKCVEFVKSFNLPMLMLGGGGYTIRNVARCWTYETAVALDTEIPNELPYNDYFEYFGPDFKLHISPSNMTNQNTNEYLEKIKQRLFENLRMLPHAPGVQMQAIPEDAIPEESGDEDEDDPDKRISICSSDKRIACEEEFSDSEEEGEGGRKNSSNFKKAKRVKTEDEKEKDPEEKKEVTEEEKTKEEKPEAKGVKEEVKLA
# [4] = tested on: MDA-MB-231 cells; test: Cell cycle analysis, propidium iodide flow cytometry; assay type: cell-based, human; details: IC50 concentration; for percentage of cells in S phases: 48 h
# Procedure: MDA-MB-231 cells were treated with tested compounds for specified time courses. After treatment, examined cells were washed in cold PBS and incubated for 30 min in 96% ethanol on ice, centrifuged, and incubated with 80 μL RNase A ([…]) and 50 μL propidium iodide (50 μg/mL) for 30 min at 37 °C. The cell cycle was analyzed by FACS Calibur E440 (Becton Dickinson) flow cytometer and Cell Quest software. Results are presented as a percentage of cell cycle phases.
# [5] = tested on: MDA-MB-231 cells; test: Cell viability (MTT) assay, MDA-MB-231; assay type: cell-based, human; details: read-out: Cytotoxic activity IC50 ± SD, MDA-MB-231
# Procedure: Human breast adenocarcinoma cells (MCF-7, ATCC® HTB-22™) and triple-negative breast cancer cells (MDA-MB-231, ATCC® HTB-26™) were obtained from the American Type Culture Collection (Rockville, MD, USA). Cells were maintained as a monolayer culture in DMEM:Ham’s 12 (1:1) medium (Sigma-Aldrich, St. Louis, MO, USA) supplemented with penicillin (192 U/mL), streptomycin (200 µg/mL), and 10% of heat-inactivated fetal calf serum (FCS). Cells were grown at 37 °C in 5% CO2 and humidified air atmosphere, by twice weekly subculture.
# Cytotoxic activity of synthesized 1-benzhydryl-piperazine-based HDAC inhibitors was assessed on MDA-MB-231 and MCF-7 cells using an MTT assay. MDA-MB-231 (5 × 10^3 cells/well) and MCF-7 (5 × 10^3 cells/well) were treated with synthesized compounds in six different concentrations (100, 50, 25, 12.5, 6.25, and 3.13 μM), and each concentration was added in five replicates. MTT solution (3-(4,5-dimethylthiazol-2-yl)-2,5-diphenyltetrazolium bromide) (Sigma-Aldrich, St. Louis, USA) was added to each well (20 µL) after 48 h. After 4 h of incubation, 100 μL of 10% SDS was added in each well and incubated at 37 °C. On the next day, the absorbance at 570 nm was recorded. The ratio of absorbance (570 nm) values between treated and control cells multiplied by 100 was used to calculate cell survival (%). The concentration of synthesized HDAC inhibitors that reduced cell viability by 50% was defined as the IC50 value, and was compared to the vehicle control.
SMILES,anti-invasive property (% compared to control) [1],tumor sphere viability ([2]; MTT),IC50 [3],percentage of cells in the S phase ([4]; 24 h),percentage of cells in S phases [4],IC50 ([5]; 48 h),"IC50 ([5]; Homo sapiens, MDA-MB-231, 48 h)","sphere formation ([2]; co-culture 4 d, at higher concentrations)",percentage of cells in the G2/M phase ([4]; 24 h),"IC50 ([2]; Homo sapiens, MDA-MB-231, spheres formed 4 d, treated 72 h, MTT)","sphere formation and spheres viability ([2]; co-culture 50 μM, 4 d in sphere culture conditions)"
"O=C(NO)c1ccc(CN2CCN(C(c3ccccc3)c3ccccc3)CC2)cc1 [Compound 9b, 4-(4-(diphenylmethyl)-piperazin-1-ylmethyl)-N-hydroxy-benzamide]",did not reduce,did not exhibit significant cytotoxic effects,1.47 ± 0.172 µM,increased,increased,38.2 ± 3.01 µM,38.1 µM,–,–,–,–
"O=C(CCCCCCN1CCN(C(c2ccccc2)c2ccccc2)CC1)NO [Compound 7b, 7-(4-(diphenylmethyl)-piperazin-1-yl)-N-hydroxyheptanamide]",–,did not exhibit significant cytotoxic effects,0.619 ± 0.023 µM,–,increased,–,10.6 ± 1.95 µM,inhibit sphere formation to some extent,slight increase,–,–
"O=C(CCCCCCCN1CCN(C(c2ccccc2)c2ccccc2)CC1)NO [Compound 8b, 8-(4-(diphenylmethyl)-piperazin-1-yl)-N-hydroxyoctanamide]",59%,–,0.408 ± 0.022 µM,–,increased,–,5.42 ± 0.77 µM,–,slight increase,50 µM,significantly inhibited
